# Assays:
# [1] = test system: Isocitrate Dehydrogenase-1 (IDH-1); experiment: Western blot, IDH1 levels; format: cell-based, human
# Procedure: The whole cell pellets were resuspended one at a time in 1 mL of C7 buffer and transferred to labeled 15 mL tubes. The samples were then sonicated in the cold room on ice using 6 sonic pulses with the setting at #14. The samples were spun for a short time to 2500 g after sonication and the samples transferred to 2 ml tubes. The pH was verified of each sample (pH should be 9.0) using the foam remaining in the […] sample tubes.
# Alkylation and reduction of samples was performed for each sample by adding 10 ul of 1M acrylamide, 25 ul of tributylphoshene and incubation for 90 mins with intermittent mixing. After incubation, 10 ul of 1M DTT was added and the tubes were spun at 20,000 g at 20 deg C. for 10 minutes and transferred the supernatant to labeled Amicon Ultra centrifugal filter units with a 10 k cut off (Millipore catalog #UFC 801024). The samples were spun for 15 minutes at 2500 g in 2 intervals. The conductivity was measured for Chaps alone as well as the samples using a conductivity meter. If the conductivity of samples is high, then 1 ml of chaps was added for buffer exchange and spun again at 2500 g until the volume was down to 250 ul. […]
# The samples were processed as per standard protocols as described above and the amount of protein in each of the samples was determined by Bradford assay. […]
# [2] = rats; Bhagavan et al.; cited from earlier work
# [3] = test system: Pancreatic Cancer Cells (PaCa2); experiment: Real-time PCR Diabetes Array; format: cell-based; details: 100 uM Q10
# Procedure: Experiments were carried out essentially as described above.
# HASMC cells = experiment: Diabetes PCR array; format: cell-based, human
# Procedure: The HK-2 and HASMC cells are normally maintained in culture at 5.5 mM glucose, which is a concentration that corresponds to a range considered normal in human blood. However, in order to simulate a diabetic environment, both cell lines were subsequently maintained at 22 mM glucose, which corresponds to the range observed in human blood associated with chronic hyperglycemia. The cells were subsequently allowed to propagate over 3 passages so that the intracellular regulation processes were functionally adapted to mimic a diabetic state. The choice of cell line was based on the physiologic influence of diabetes on renal dysfunction and progression to end-stage renal disease (ESRD) in addition to the progressive pathophysiology of a compromised cardiovascular function.
# The Diabetes PCR array (SABiosciences) offers a screen for 84 genes simultaneously.
# A stringent analysis of the Real time PCR data of the HASMC cell samples on the Diabetes Arrays (Cat #PAHS-023E, SABiosciences Frederick Md.) was made to exclude all results where gene regulation was not at least a two-fold regulation over HASMC normal untreated cells with a p value of less than 0.05.
smiles,measurement,setting,value
"COC1=C(OC)C(=O)C(C/C=C(\C)CC/C=C(\C)CC/C=C(\C)CC/C=C(\C)CC/C=C(\C)CC/C=C(\C)CC/C=C(\C)CC/C=C(\C)CC/C=C(\C)CCC=C(C)C)=C(C)C1=O [Q10, Coenzyme Q10]",expression of IDH1,"[1]; HDFa, nFIB, HASMC",did not demonstrate significant changes in the expression pattern
same,expression of IDH1,"[1]; cancer cell lines MCF-7, SKMEL28, HepG2, PaCa-2",increased expression of IDH1
same,orally-administered CoQ10 absorbed,[2],2-3%
same,"diabetes array genes (ABCC8, ACLY, ADRB3 ... IL4R, IL6 as listed)",[3],modulated by Q10 treatment
same,expression of CCL5,HASMC cells; HASMC cells,significant decrease in the expression of CCL5
same,"expression of AGT, CEACAM1, INSR, SELL, IL-6, TNF, CCL5",HASMC cells; hyperglycemic HASMC cells,altered expression of genes

# Reference: patent publication US10519504B2, “Methods for treatment of oncological disorders using epimetabolic shifters, multidimensional intracellular molecules, or environmental influencers” (Berg LLC, priority 2009, dated 2019)
